Experiments:
[1] = target: HIV integrase (Human immunodeficiency virus type 1 group M subtype B, UniProt P04585); assay: biochemical
Description: The inhibitory activities against integrase were determined by the assay described below. • (1) Preparation of DNA Solutions
Before using the DNA solutions, complementary chains were annealed by slowly cooling after boiling.
Streptavidin, obtained from Vector Laboratories, was dissolved in 0.1 M carbonate buffer (composition: 90 mM Na2CO3, 10 mM NaHCO3) at concentration of 40 μg/ml. After coating each well of immunoplates (obtained from NUNC) with 50 μl of the above solution at 4° C. over night, each well was washed twice with PBS (composition: 13.7 mM NaCl, 0.27 mM KCl, 0.43 mM Na2HPO4, 0.14 mM KH2PO4) and blocked with 300 μl of 1% skim milk in PBS for 30 min. Additionally, each well was washed twice with PBS and added 50 μl of substrate DNA solution (2 pmol/μl). The immunoplates were kept at room temperature for 30 min while shaking. Then, each well was washed twice with PBS and once with the distilled water.
Subsequently, in the each well prepared above were added 51 μl of the reaction solution prepared from 12 μl of the buffer (composition: 150 mM MOPS (pH7.2), 75 mM MnCl2, 50 mM 2-mercaptoethanol, 25% glycerol, 500 μg/ml bovine serum albumin-fraction V), and 39 μl of the distilled water. Then 9 μl of an integrase solution (30 pmol) was added and mixed well. In the well of negative control (NC) was added 9 μl of the integrase dilution buffer (composition: 20 mM MOPS (pH7.2), 400 mM potassium glutamate, 1 mM EDTA, 0.1% NP-40, 20% glycerol, 1 mM DTT, 4M urea), and mixed well using a plate mixer.
The plates were incubated at 30° C. for 60 minutes. The reaction solution was removed and washed three times with 250 μl of washing buffer (composition: 150 mM MOPS (pH7.2), 50 mM 2-mercaptoethanol, 25% glycerol, 500 μg/ml bovine serum albumin-fraction V).
Then each well was added with 53 μl of reaction solution prepared from 12 μl of buffer (composition: 150 mM MOPS (pH7.2), 75 mM MgCl2, 50 mM 2-mercaptoethanol, 25% glycerol, 500 μg/ml bovine serum albumin-fraction V) and 41 μl of distilled water. Further, each well was added with 6 μl of DMSO solution of a compound to be tested, and the well of positive control (PC) was added with 6 μl of DMSO, and mixed well by a plate mixer. After incubating the plate for 30 minutes at 30° C., was added 1 μl of target DNA (5 pmol/μl), and mixed well by a plate mixer.
After incubation for 10 minutes at 30° C., each plate was washed twice with PBS after removal of the reaction solution. Then, 100 μl of ×2000 diluted solution of anti-digoxigenin antibody labeled with alkaline phosphatase (sheep Fab fragment: Boehringer) was added allowed to bind for 1 hour at 30° C., and washed twice with PBS containing 0.05% Tween20 and once with PBS in this sequence. Next, 150 μl of the Alkaline phosphatase coloring buffer (composition: 10 mM p-Nitrophenylphosphate (obtained from Vector Laboratories), 5 mM MgCl2, 100 mM NaCl, 100 mM Tris-HCl (pH 9.5)) was added and allowed to react for 2 hours at 30° C. Then the reaction was terminated by the addition of 50 μl of 1N NaOH solution. The optical density at 405 nm (OD405nm) of each well was measured and the inhibition rate (IC50) was determined by the following expression. The inhibition rate(%)=100[1−{(C abs.−NC abs.)/(PC abs.−NC abs.)}]
C abs.; the OD of the well of the compound
NC abs.: the OD of the negative control (NC)
PC abs.: the OD of the positive control (PC)

| SMILES | IC50 [1] [nM] | melting point [°C] |
| --- | --- | --- |
| Cc1nc(C(=O)NN(C)C)c(O)c2ncc(Cc3ccc(F)cc3)cc12 [Example B-17, 3-(4-fluorobenzyl)-8-hydroxy-5-methyl[1,6]naphthyridine-7-carboxylic acid N′,N′-dimethylhydrazide] | 16.9 | 137 to 139 |
| CC(O)c1nc(C(=O)NN(C)C)c(O)c2ncc(Cc3ccc(F)cc3)cc12 (stereo not drawn) [Example B-18, 3-(4-fluorobenzyl)-8-hydroxy-5-(1-hydroxyethyl)[1,6]naphthyridine-7-carboxylic acid N′,N′-dimethylhydrazide] | 44.2 | 114 to 116 |
| COCC=Cc1nc(C(=O)NN(C)C)c(O)c2ncc(Cc3ccc(F)cc3)cc12 [Example B-19, 3-(4-fluorobenzyl)-8-hydroxy-5-(3-methoxypropenyl)[1,6]naphthyridine-7-carboxylic acid N′,N′-dimethylhydrazide] | 11.2 | 115 to 116 |

— patent publication US7919623B2, “Naphthyridine derivatives having inhibitory activity against HIV integrase” (Shionogi & Co., Ltd., priority 2004, dated 2011)
